Laboratory results published in patent publication US9045423B2, “Prophylactic and/or therapeutic agent for anemia comprising tetrahydroquinoline compound as active ingredient” (KOWA COMPANY, LTD., priority 2009, dated 2015).

Tests used:
[1] = tested on: HepG2 cells derived from human liver cancer; test: EPO production in HepG2 cells (EPO ELISA of culture supernatant); format: cell-based; details: for activity at 10 µM / activity at 3 µM: Homo sapiens; for activity at 10 µM: HepG2, 48 h, read-out: enhancement of EPO production; for activity at 3 µM: HepG2, 3 μM test compound, 48 hrs, 4% oxygen, non-stimulated state without compound = 100%, read-out: amount of EPO production, % of control (3 μM)
Protocol: HepG2 cells derived from human liver cancer were inoculated in an amount of 5×10^4 cells per well on a 48-well plate, using minimum essential medium (MEM, Sigma-Aldrich Company) containing 10% bovine fetal serum. On the next day, the medium was exchanged with Dulbecco's modified eagle medium (DMEM (Sigma-Aldrich Company)) containing 10% bovine fetal serum without Phenol Red. Then, a test compound dissolved in DMSO was added thereto to obtain a final concentration of 3 μM or 10 μM, and the amount of medium was adjusted to 400 μL per well. The cells were incubated for 48 hrs in a CO2 incubator in which the oxygen concentration was adjusted to 4%, and then the culture supernatant was collected. The EPO concentration in the culture supernatant was immediately measured using an EPO ELISA kit (Roche Diagnostics GmbH). The method was carried out according to the operation manual.
The amount of EPO production in a non-stimulated state where no compounds were added, was designated as 100%, and the amount of EPO production (% of control) induced by each of the compounds was determined.

[2] = tested on: K562 cells, a human proerythroblast cell line; test: Hemoglobin production in K562 cells (fluorescence of the porphyrin ring); format: cell-based; details: for activity at 6 µM: Homo sapiens, K562, 144 h, 6 μM test compound, 3 + 3 days incubation, non-stimulated state without compound = 100, read-out: amount of hemoglobin, % of control (6 μM); for enhancement of hemoglobin production: drug concentration 20 μM
Protocol: K562 cells (obtained from ATCC), which is a human proerythroblast cell line, were inoculated at a concentration of 1×10^5 cells/1 mL in each well of a 24-well plate, using complete medium (RPMI-1640 medium containing 10% bovine fetal serum), and 1 μL of a test compound at a 1000-fold concentration was added to each well. Subsequently, the cells were incubated for 3 days in a CO2 incubator (37° C., 5% CO2). The medium was exchanged, and the cells were further incubated for 3 days. The cells were collected and counted. Subsequently, the amount of hemoglobin produced in the cells was determined by adjusting the number of cells to 3×10^5 cells, and measuring the fluorescence of the porphyrin ring. That is, the cells collected by centrifugation were suspended in 500 μL of 2 M oxalic acid, and were heated to boil for 30 minutes. The cells were cooled, and then the fluorescence intensity was measured by using a fluorescence microplate reader (Spectra MAX GeminiEM; Molecular Devices Corp.) ([…]). The amount of hemoglobin in a non-stimulated state where no compound was added was designated as 100-, and the amount of hemoglobin (% of control) produced as induced by each of the compounds was determined.

[3] = final concentration 10 μM, non-stimulated state = 100%

SMILES: CC(=O)N1c2ccc(-c3cnc(C)[nH]3)cc2C(Nc2ccc(Cl)cc2)CC1C (stereo not shown) [Compound 127, 4-{1-Acetyl-4-[(4-chlorophenyl)-amino]-2-methyl-1,2,3,4-tetra-hydroquinolin-6-yl}-2-methyl-1H-imidazole]
- activity at 10 µM [1, 3]: 130%
- activity at 3 µM [1]: 96%

SMILES: CC(=O)N1c2ccccc2C(Oc2ccc(NS(C)(=O)=O)cc2)CC1C (stereo not shown) [Compound 143, N-{4-[(1-acetyl-2-methyl-1,2,3,4-tetrahydroquinolin-4-yl)oxy]-phenyl}methanesulfonamide]
- activity at 3 µM [1]: 130%
- activity at 6 µM [2]: 396%

SMILES: CNC(=O)c1ccc2c(c1)C(Nc1ccc(C3CCOCC3)cc1)CC(C)N2C(C)=O (stereo not shown) [Compound 155, 1-Acetyl-N,2-dimethyl-4-{[4-(tetrahydro-2H-pyran-4-yl)phenyl]amino}-1,2,3,4-tetrahydroquino-line-6-carboxamide]
- activity at 6 µM [2]: 387%

SMILES: CC(=O)N1c2ccc(C(=O)Nc3ccccc3)cc2C(Nc2ccc(Cl)cc2)CC1C (stereo not shown) [Compound 130, 1-Acetyl-4-[(4-chlorophenyl)-amino]-2-methyl-N-phenyl-1,2,3,4-tetrahydroquinoline-6-carboxamide]
- activity at 3 µM [1]: 133%
- activity at 6 µM [2]: 172%

SMILES: CNC(=O)c1ccc2c(c1)C(Nc1cccc(N3CCOCC3)c1)CC(C)N2C(C)=O (stereo not shown) [Compound 180, 1-Acetyl-N,2-dimethyl-4-[(3-morpholinophenyl)amino]-1,2,3,4-tetrahydroquinoline-6-carboxamide]
- activity at 6 µM [2]: 150%

SMILES: CCOC(=O)c1ccc2c(c1)C(Nc1ccc(C3CCOCC3)cc1)CC(C)N2C(C)=O (stereo not shown) [Compound 153, Ethyl 1-acetyl-2-methyl-4-{[4-(tetrahydro-2H-pyran-4-yl)-phenyl]amino}-1,2,3,4-tetrahydroquinoline-6-carboxylate]
- activity at 6 µM [2]: 294%

SMILES: COC(=O)CCCCCNC(=O)c1ccc2c(c1)C(Nc1ccc(Cl)cc1)CC(C)N2C(C)=O (stereo not shown) [Compound 158, Methyl 6-{1-acetyl-4-[(4-chloro-phenyl)amino]-2-methyl-1,2,3,4-tetrahydroquin-oline-6-carboxamido}-hexanoate]
- activity at 10 µM [1, 3]: 248%
- activity at 6 µM [2]: 411%

SMILES: CCOC(=O)c1ccc2c(c1)C(Nc1ccc(C3CCCCC3)cc1)CC(C)N2C(C)=O (stereo not shown) [Compound 144, Ethyl 1-Acetyl-4-[(4-cyclohexylphenyl)-amino]-2-methyl-1,2,3,4-tetrahydroquinoline-6-carboxylate]
- activity at 3 µM [1]: 180%
- activity at 6 µM [2]: 338%

SMILES: CC(=O)N1c2ccc(N3CCOCC3)cc2C(Nc2ccc(N3CCOCC3)cc2)CC1C (stereo not shown) [Compound 161, 1-Acetyl-2-methyl-6-morpholino-4-[(4-morpholinophenyl)-amino]-1,2,3,4-tetrahydroquinoline]
- activity at 3 µM [1]: 351%
- activity at 6 µM [2]: 308%

SMILES: CCOC(=O)Cc1ccc(NC2CC(C)N(C(C)=O)c3ccc(NS(C)(=O)=O)cc32)cc1 (stereo not shown) [Compound 99, 1-Acetyl-6-methanesulfonylamino-2-methyl-4-[(4-ethoxycarbonyl-methylphenyl)amino]-1,2,3,4-tetra-hydroquinoline]
- enhancement of hemoglobin production [2]: 306%

SMILES: CC(=O)N1c2ccc(C(=O)O)cc2C(Oc2ccc(N3CCOCC3)cc2)CC1C (stereo not shown) [Compound 139, 1-Acetyl-2-methyl-4-(4-morpho-linophenoxy)-1,2,3,4-tetrahydro-quinoline-6-carboxylic acid]
- activity at 6 µM [2]: 193%

SMILES: CNC(=O)c1ccc2c(c1)C(Nc1ccc(-c3ncco3)cc1)CC(C)N2C(C)=O (stereo not shown) [Compound 170, 1-Acetyl-N,2-dimethyl-4-{[4-(oxazol-2-yl)phenyl]-amino}-1,2,3,4-tetrahydroquinoline-6-carboxamide]
- activity at 3 µM [1]: 128%

SMILES: CC(=O)N1c2ccc(C(N)=O)cc2[C@H](Nc2ccc(NS(C)(=O)=O)cc2)C[C@@H]1C (relative stereo) [Compound 102, 1-Acetyl-4-[(4-methanesulfonyl-aminophenyl)amino]-2-methyl-1,2,3,4-tetrahydroquinoline-6-carbox-amide]
- enhancement of hemoglobin production [2]: 115%

SMILES: CC(=O)N1c2ccc(C(=O)NCCOCCOCCOCCC(=O)OC(C)(C)C)cc2C(Nc2ccc(Cl)cc2)CC1C (stereo not shown) [Compound 148, Tert-butyl 12-{1-Acetyl-4-[(4-chlorophenyl)-amino]-2-methyl-1,2,3,4-tetrahydroquinoline-6-carboxamido}-4,7,10-trioxadodecanoate]
- activity at 6 µM [2]: 506%

SMILES: CC(=O)N1c2ccc(N3CCN(C(C)C)CC3)cc2C(Nc2ccc(N3CCOCC3)cc2)CC1C (stereo not shown) [Compound 159, 1-Acetyl-6-(4-isopropylpiperazin-1-yl)-2-methyl-4-[(4-morpholinophenyl)-amino]-1,2,3,4-tetrahydroquinoline]
- activity at 3 µM [1]: 292%

SMILES: CC(=O)N1c2ccccc2[C@H](OCc2ccccc2)C[C@@H]1C (relative stereo) [Compound 36, 1-Acetyl-2-methyl-4-benzyloxy-1,2,3,4-tetrahydroquinoline]
- enhancement of hemoglobin production [2]: 143%

SMILES: CC(=O)N1c2c(F)cccc2[C@H](Nc2ccccc2F)C[C@@H]1C (relative stereo) [Compound 4, 1-Acetyl-8-fluoro-4-[(2-fluoro-phenyl)amino]-2-methyl-1,2,3,4-tetrahydroquinoline]
- enhancement of hemoglobin production [2]: 162%

SMILES: CC(=O)N1c2ccc(C(=O)O)cc2C(Oc2ccc(Cl)cc2)CC1C (stereo not shown) [Compound 141, 1-Acetyl-4-(4-chlorophenoxy)-2-methyl-1,2,3,4-tetrahydro-quinoline-6-carboxylic acid]
- activity at 6 µM [2]: 209%

SMILES: CC(=O)N1c2ccc(C(N)=O)cc2C(Nc2ccc(C3CCOCC3)cc2)CC1C (stereo not shown) [Compound 156, 1-Acetyl-2-methyl-4-{[4-(tetrahydro-2H-pyran-4-yl)phenyl]amino}-1,2,3,4-tetrahydroquinoline-6-carboxamide]
- activity at 6 µM [2]: 371%

SMILES: CC(=O)N1c2c(Br)cccc2C(Nc2ccccc2)CC1C (stereo not shown) [Compound 63, 1-Acetyl-8-bromo-4-phenylamino-2-methyl-1,2,3,4-tetrahydroquino-line]
- enhancement of hemoglobin production [2]: 260%

SMILES: CC(=O)N1c2ccc(C(=O)O)cc2C(Nc2ccc(Cl)cc2)CC1C (stereo not shown) [Compound 42, 1-Acetyl-4-[(4-chlorophenyl)-amino]-2-methyl-1,2,3,4-tetrahydro-quinoline-6-carboxylic acid]
- enhancement of EPO production [1, 3]: 138%

SMILES: CC(=O)N1c2ccc(N3CC(C)OC(C)C3)cc2C(Nc2ccc(NS(C)(=O)=O)cc2)CC1C (stereo not shown) [Compound 110, 1-Acetyl-6-[(2,6-dimethyl)-morpholino]-4-[(4-methanesulfonylaminophenyl)-amino]-2-methyl-1,2,3,4-tetrahydroquinoline]
- activity at 3 µM [1]: 207%

SMILES: CC(=O)N1c2ccc(N3CCN(C(=O)C(C)C)CC3)cc2C(Nc2ccc(NS(C)(=O)=O)cc2)CC1C (stereo not shown) [Compound 111, 1-Acetyl-6-[(4-isopropylcarbonyl)-piperazino]-4-[(4-methanesulfonyl-aminophenyl)amino]-2-methyl-1,2,3,4-tetrahydroquinoline]
- enhancement of hemoglobin production [2]: 171%

SMILES: COC(=O)CCCc1ccc(NC(=O)c2ccc3c(c2)C(Nc2ccc(Cl)cc2)CC(C)N3C(C)=O)cc1 (stereo not shown) [Compound 150, Methyl 4-{4-{1-Acetyl-4-[(4-chlorophenyl)-amino]-2-methyl-1,2,3,4-tetrahydroquinoline-6-carboxamido}-phenyl}butanoate]
- activity at 6 µM [2]: 534%

SMILES: CC(=O)N1c2ccc(NS(C)(=O)=O)cc2C(Nc2ccc(N3CCOCC3)cc2)CC1C (stereo not shown) [Compound 98, 1-Acetyl-6-methanesulfonylamino-2-methyl-4-[(4-morpholinophenyl)-amino]-1,2,3,4-tetrahydroquin-oline]
- enhancement of hemoglobin production [2]: 142%
